In US20210278408A1, “METHODS OF TREATMENT OF CANCER WITH SUBSTITUTED PYRROLE AND PYRAZOLE COMPOUNDS AND DIAGNOSIS OF CANCERS SUSCEPTIBLE TO TREATMENT WITH SUBSTITUTED PYRROLE AND PYRAZOLE COMPOUNDS” (Bantam Pharmaceutical, LLC, priority 2018, published 2021):
“Also recorded” adds a separate entry of the source.

Experiments:
[1] = tested on: SU-DHL-10 xenograft; test: Human xenograft model, diffuse large B-cell lymphoma line SU-DHL-10; assay type: in vivo, SCID beige mice; details: once daily oral gavage, p<0.01 for 10 and 30 mpk doses
Method: (§1) FIG. 10 is a set of graphs of in vivo treatment results for Athymic Nude mice engrafted with the DLBCL line SU-DHL-10 (left panel) or the CRC line HCT-116 (right panel). After 14 days, groups of mice (n=10 per group) were randomized by tumor volume and treated with Compound B19 (left panel) or Compound A197 (right panel). All animals dosed p.o. q.d. (orally once per day). Tumor burden was measured over 21 days. Compound B19 efficacy was monitored for 21 days following last dose to determine relapse. All data plotted as the mean±SEM, n=10 mice per group.
(§2) The positive results of the PK studies led to an evaluation of Compound A197 and Compound B19 in murine xenograft models of human tumors. Compound A197 was tested in a human tumor xenograft model using KRAS mutated colorectal cancer cell line HCT-116. Athymic nude mice (HSD:Athymic Nude-Foxn1 nu, Envigo) were inoculated subcutaneously with 5×10^6 HCT-116 cells in the right rear flank. The animals wethen staged and randomized by tumor size to achieve dose groups of 10 animals each with an average tumor volume of 150 mm^3. Tumor bearing mice were dosed once daily by oral gavage with a vehicle (5% NMP, 15% PEG400, 10% Solutol, and 70% D5W) or with A197 dissolved in vehicle to provide a dose concentration of 10 ml/kg. Compound B19 was tested in a human xenograft model using the human diffuse large B-cell lymphoma line SU-DHL-10 (ATCC). […]

[2] = tested on: HCT-116 xenograft; test: Human tumor xenograft model, colorectal cancer cell line HCT-116; assay type: in vivo
Method: as §1, §2

[3] = tested on: Cytoskeletal; test: High content imaging screen: cytoskeletal; assay type: cell-based; details: actin or microtubule localization or structure
Method: (§3) Mechanism of Action Screens A series of broad high content imaging, transcriptomic, metabolomic, and CRISPR KO screens were performed to link Compound A197 activity to a probable method of action. The outcome of these screens included two notable observations.

[4] = tested on: Oxidative Stress; test: High content imaging screen: oxidative stress (ROS); assay type: cell-based
Method: as §3

[5] = tested on: Kinase; test: In vitro assays: kinase; assay type: biochemical; details: 63 kinase family members including Raf, MEK, ERK, AKT, CDK1-4
[6] = tested on: HDAC; test: In vitro assays: HDAC; assay type: biochemical
Method: as §3

[7] = tested on: Gene Expression; test: Transcriptomic screen; assay type: cell-based
Method: as §3

[8] = tested on: ATF4, ATF6, ERN1/XBP1 and cell cycle regulated genes; test: mRNA expression profiling by QPCR in NHLF, HCT-116, HAP1 and SU-DHL-2; assay type: cell-based, human; details: 5 μM, 8 hrs
Method: FIG. 11 is a graph of expression of ATF4, ATF6, Xbp1, and cell cycle regulated genes in Compound A197 responsive cell lines. All cells were treated with 5 […] Compound A197 for 8 hrs, then RNA was isolated and specific gene expression determined by qPCR. All data are represented as Log2 Fc. *=p<0.05, n=3.
ATF4-mediated gene expression profile is induced by compounds. ATF4 activation is closely aligned with activation of ER stress and the related TF's ATF6, ERN1 and XBP1. To determine the role of each transcription factor, a set of fifteen genes were selected to evaluate the specificity of the response as related ATF4 and to other transcription factors. […] These genes can be regulated in a variety of ways and so reflect an outcome of compound action: cell cycle arrest.
Four cell lines were chosen for gene expression profiling. Normal Human Lung Fibroblasts were chosen as an example of a non-responsive cell line. The colorectal cancer cell line HCT-116 and the chronic myelogenous leukemia line HAP1 were chosen as examples of cell lines responsive to compound undergoing growth arrest. The diffuse large B-Cell lymphoma line SU-DHL-2 was chosen as a cell line undergoing growth arrest and apoptosis. […] RNA recovery is determined using a NanoDrop nucleic acid quantification device. […] The change in gene expression relative to vehicle is calculated using Expression Analysis software (ThermoFisher).

[9] = tested on: SU-DHL-2; test: Cell proliferation, Cell-Titre Glo, 72 hours: SU-DHL-2; assay type: cell-based; details: Homo sapiens, mean ± std. dev.
Method: (§4) NHLF, BJAB, SU-DHL-2, and HCT-116 cells were treated with Compound A197 for 4 hours prior to lysate harvest. Total cellular glutathione (GSH) levels were determined using a luminescent endpoint (GSH-Glo, Promega). Cell proliferation was determined using Cell-Titre Glo following 72 hours of compound treatment. All data shown is mean±SD of three biological replicates.

[10] = tested on: HCT-116; test: Cell proliferation, Cell-Titre Glo, 72 hours: HCT-116; assay type: cell-based; details: Homo sapiens, mean ± std. dev.
Method: as §4

[11] = tested on: BJAB; test: Apoptosis, 72 hr: BJAB; assay type: cell-based, human
[12] = tested on: SU-DHL-2; test: Apoptosis, 72 hr: SU-DHL-2; assay type: cell-based, human
[13] = tested on: HCT-116; test: Apoptosis, 72 hr: HCT-116; assay type: cell-based, human

| SMILES | regression in DLBCL tumors [1] | tumor growth in the solid tumor model ([2]; HCT-116 xenograft, once daily oral gavage, 21 days, p<01 for 75 and 30 mpk doses) | tolerability, signs of toxicity ([2]; markers of liver function, metabolism, and myelopoiesis, tumor bearing mice (data not shown)) | Outcome: Cytoskeletal [3] | Outcome: Oxidative Stress [4] | Outcome: Kinase [5] | Outcome: HDAC [6] | Outcome: Gene Expression [7] | CDKN1A (p21/Waf1) mRNA expression [8] | induction of ATF4, ATF6 or IRE1/Xbp1 regulated genes ([8]; HCT-116, HAP-1, SU-DHL-2, NHLF) | IC50 [9] | IC50 [10] | Apoptosis, 72 hr [11] | Apoptosis, 72 hr [12] | Apoptosis, 72 hr [13] |
| --- | --- | --- | --- | --- | --- | --- | --- | --- | --- | --- | --- | --- | --- | --- | --- |
| COC(=O)c1c(-c2cccc(F)c2)c(C)nn1-c1nc(C2=CCC(C(F)(F)F)CC2)c(SC(C)C)s1 (single isomer, unassigned) [Compound B19, methyl 4-(3-fluorophenyl)-1-(5-(isopropylthio)-4-(4-(trifluoromethyl)cyclohex-1-en-1-yl)thiazol-2-yl)-3-methyl-1H-pyrazole-5-carboxylate] | dose-dependent and durable regression in DLBCL tumors by day 21 |  |  |  |  |  |  |  |  |  |  |  |  |  |  |
| Cc1nn(-c2nc(-c3ccc(C(F)(F)F)cc3)c(SC(C)C)s2)c(C(=O)O)c1-c1cccc(F)c1 [Compound A197, 4-(3-fluorophenyl)-1-(5-(isopropylthio)-4-(4-(trifluoromethyl)phenyl)thiazol-2-yl)-3-methyl-1H-pyrazole-5-carboxylic acid] |  | significantly slower growth | well-tolerated with no overt signs of toxicity | No obvious changes in actin or microtubule localization | No production of ROS | No activity on 63 kinase family members including Raf, | No activity on any HDAC | induced the ATF4 pathway; also recorded: Induction of ATF pathway; no effect on cell cycle gene | increased | preferentially induces ATF4, but not ATF6 or IRE1/Xbp1 regulated genes in three responsive tumor cell lines (HCT-116, HAP-1 and SU-DHL-2) but not in primary NHLF | 180 ± 60 nM | 530 ± 210 nM | Yes | Yes | No |
